The target in one assay is DmelOrco Y400A (Drosophila melanogaster, UniProt Q9VNB5, Y400A). The assay can be described thus: TEVC recording of VUAA1-induced current, DmelOrco Y400A in Xenopus oocytes. The format is cell-based. The following applies: 500 µM VUAA1, TEVC. The source says:
(§1) All Orco gene sequences were optimized[63] for protein expression in Xenopus laevis oocytes with the GenSmartTM Codon optimization Tool and subcloned into a pGEMHE-derived vector. The wildtype gene of Drosophila melanogaster Orco (DmelOrco) was synthesized by Genscript and subcloned with XmaI/XhoI cloning sites. Site-directed mutagenesis of DmelOrco was done by PCR with the Q5® site directed mutagenesis kit (NEB) using primers optimized with the NEBase Changer online tool and following the supplier’s protocol. After transformation of commercial competent bacteria (XL10 Gold) by standard heat-shock protocol and overnight culture in ampicillin-containing LB plates, positive clones were identified by electrophoretic restriction profile and external sequencing (Genewiz). DNAs of positive clones were amplified with Qiagen MidiPrep Kit and the ORF was fully sequenced. For in vitro transcription, DNAs were linearized with restriction enzyme NotI that cuts a unique site in the 3′ region of the polyA tail. […] DNA and RNA were analyzed by agarose-gel electrophoresis and quantified by spectrophotometry. […]
(§2) Whole cell currents were recorded with the two-electrode voltage-clamp (TEVC) technique with the HiClamp robot (MultiChannel System). […] Data were extracted with M. Vivaudou’s programs[65] and statistically analyzed with Prism 8 (Graphpad).

The next assay concerns the target DmelOrco Y397S (Drosophila melanogaster, UniProt Q9VNB5, Y397S). Description: TEVC recording of VUAA1-induced current, DmelOrco Y397S in Xenopus oocytes. The format is cell-based.
Source text: as §1, §2

The next assay has as its target DmelOrco K373A (Drosophila melanogaster, UniProt Q9VNB5, K373A). Description: TEVC recording of VUAA1-induced current, DmelOrco K373A in Xenopus oocytes. The format is cell-based. Also on record: VUAA1-induced current, K373A: unit not given here.
Source text: as §1, §2

The target of the next assay is DmelOrco F83W (Drosophila melanogaster, UniProt Q9VNB5, F83W). The assay can be described thus: TEVC recording of VUAA1-induced current, DmelOrco F83W in Xenopus oocytes. The format is cell-based. Conditions: 500 µM VUAA1, TEVC.
DmelOrco F83W, sequence (Q9VNB5 whole entry F83W, the tested form may be a part): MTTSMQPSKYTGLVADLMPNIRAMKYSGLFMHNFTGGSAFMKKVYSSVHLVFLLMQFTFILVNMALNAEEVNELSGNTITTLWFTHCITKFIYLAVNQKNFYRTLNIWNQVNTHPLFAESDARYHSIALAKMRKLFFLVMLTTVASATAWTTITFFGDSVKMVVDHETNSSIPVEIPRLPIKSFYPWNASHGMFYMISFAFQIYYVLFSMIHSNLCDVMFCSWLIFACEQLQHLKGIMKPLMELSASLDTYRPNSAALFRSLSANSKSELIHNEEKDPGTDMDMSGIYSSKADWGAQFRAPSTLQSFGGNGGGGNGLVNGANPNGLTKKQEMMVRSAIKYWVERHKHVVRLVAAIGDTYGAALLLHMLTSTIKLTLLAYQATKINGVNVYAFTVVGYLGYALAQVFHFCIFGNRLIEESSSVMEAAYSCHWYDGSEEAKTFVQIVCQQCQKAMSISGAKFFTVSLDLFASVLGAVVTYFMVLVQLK
Source text: as §1, §2

Another assay has as its target DmelOrco F83A (Drosophila melanogaster, UniProt Q9VNB5, F83A). Description: TEVC recording of VUAA1-induced current, DmelOrco F83A in Xenopus oocytes. The format is cell-based. Conditions: 500 µM VUAA1, TEVC.
Source text: as §1, §2

Another assay has as its target DmelOrco V206S (Drosophila melanogaster, UniProt Q9VNB5, V206S). Description: TEVC recording of VUAA1-induced current, DmelOrco V206S in Xenopus oocytes. The format is cell-based. Details: unit not given here. Conditions: Fig.4b; individual oocytes.
Source text: as §1, §2

Another assay concerns the target DmelOrco L141W (Drosophila melanogaster, UniProt Q9VNB5, L141W). Description: TEVC recording of VUAA1-induced current, DmelOrco L141W in Xenopus oocytes. The following applies: 500 µM VUAA1, TEVC. The assay is classed as cell-based.
Source text: as §1, with “sequenced.” for “sequenced. For in vitro transcription, DNAs were linearized with restriction enzyme NotI that cuts a unique site in the 3′ region of the polyA tail.”
(§3) Whole cell currents were recorded with the two-electrode voltage-clamp (TEVC) technique with the HiClamp robot (MultiChannel System). […] Data were extracted with M. Vivaudou’s programs[65] and statistically analyzed with Prism 8 (Graphpad). […]
(§4) 100 by 500 µM of the ligand VUAA1 and measured by TEVC recordings on DmelOrco WT and mutants […]

In a further assay the test system is AalbOrco. Description: TEVC recording of VUAA1-induced current, AalbOrco in Xenopus oocytes. The assay is classed as cell-based, Aedes albopictus. The following applies: 500 µM VUAA1, TEVC, each value one oocyte, Fig.S1c source data.
Source text: as §1, with “sequenced.” for “sequenced. For in vitro transcription, DNAs were linearized with restriction enzyme NotI that cuts a unique site in the 3′ region of the polyA tail.”
as §3
37 from different species expressed in Xenopus oocytes and recorded by TEVC. […]

Another assay concerns the target DmelOrco L141V (Drosophila melanogaster, UniProt Q9VNB5, L141V). Description: TEVC recording of VUAA1-induced current, DmelOrco L141V in Xenopus oocytes. The format is cell-based. Conditions: 500 µM VUAA1, TEVC.
Source text: as §1, with “sequenced.” for “sequenced. For in vitro transcription, DNAs were linearized with restriction enzyme NotI that cuts a unique site in the 3′ region of the polyA tail.”
as §3, §4

In another assay the target is DmelOrco V206A (Drosophila melanogaster, UniProt Q9VNB5, V206A). The assay can be described thus: TEVC recording of VUAA1-induced current, DmelOrco V206A in Xenopus oocytes. The format is cell-based. Also on record: VUAA1-induced current, V206A: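 current amplitude in µA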.
DmelOrco V206A, sequence (Q9VNB5 whole entry V206A, the tested form may be a part): as the sequence (Q9VNB5 whole entry F83W, the tested form may be a part) above, with W83F, V206A counted along it
Source text: as §1, §2

The next assay concerns the target DmelOrco M210W (Drosophila melanogaster, UniProt Q9VNB5, M210W). The assay can be described thus: TEVC recording of VUAA1-induced current, DmelOrco M210W in Xenopus oocytes. The assay is classed as cell-based. The source says:
All Orco gene sequences were optimized[63] for protein expression in Xenopus laevis oocytes with the GenSmartTM Codon optimization Tool and subcloned into a pGEMHE-derived vector. The wildtype gene of Drosophila melanogaster Orco (DmelOrco) was synthesized by Genscript and subcloned with XmaI/XhoI cloning sites. Site-directed mutagenesis of DmelOrco was done by PCR with the Q5® site directed mutagenesis kit (NEB) using primers optimized with the NEBase Changer online tool and following the supplier’s protocol. After transformation of commercial competent bacteria (XL10 Gold) by standard heat-shock protocol and overnight culture in ampicillin-containing LB plates, positive clones were identified by electrophoretic restriction profile and external sequencing (Genewiz). DNAs of positive clones were amplified with Qiagen MidiPrep Kit and the ORF was fully sequenced. For in vitro transcription, DNAs were linearized with restriction enzyme NotI that cuts a unique site in the 3′ region of the polyA tail. The linearized DNAs were purified by the standard phenol:chloroform extraction method and transcribed into mRNA using the T7 ultra mMessage mMachine kit (Thermo Fisher Scientific). mRNAs were purified with the NucleoSpin RNA plus XS kit (Machery-Nagel). DNA and RNA were analyzed by agarose-gel electrophoresis and quantified by spectrophotometry.
Xenopus laevis oocytes were prepared, as previously described. Briefly, oocytes were defolliculated after surgical retrieval by type 1 A collagenase over 2-3 h under smooth horizontal agitation. They were manually selected and incubated at 19 °C in modified-Barth’s solution (1 mM KCl, 0.82 mM MgSO4, 88 mM NaCl, 2.4 mM NaHCO3, 0.41 mM CaCl2, Ca(NO3)2 0.3 mM, 16 mM HEPES, pH 7.4) supplemented with 100 U mL^−1 of penicillin and streptomycin and 0.1 mg mL^−1 of gentamycin. Each oocyte was micro-injected with the Nanoject instrument (Drummond) with 50 nL of 20 ng of mRNA coding for the Orco of interest. Injected oocytes were incubated individually in 96-well plates for 4 days at 19 °C in the same buffer. Different batches of oocytes have been tested per construct. The results of the mutants of interest have been confirmed by a second set of experiments comparing the amplitudes with WT in the same day and from the same batch of oocytes (Supplementary Fig. 11).
Whole cell currents were recorded with the two-electrode voltage-clamp (TEVC) technique with the HiClamp robot (MultiChannel System). Microelectrodes were filled with 3 M KCl. The high K^+ buffer used for recordings was composed of 91 mM KCl, 1 mM MgCl2, 1.8 mM CaCl2, 5 mM HEPES, pH 7.4. Membrane voltage was clamped to −50 mV and VUAA1 was applied for 60 s. Data were extracted with M. Vivaudou’s programs[65] and statistically analyzed with Prism 8 (Graphpad).

Structures are written as SMILES. Several values for one entry are separate records, joined by “and”; a condition that tells them apart may be missing. Identical values can stand only once. Entries after “also recorded” stand apart in the source; their conditions may differ.

The EC50 is the concentration giving half of the maximal effect.

DmelOrco M210W, sequence (Q9VNB5 whole entry M210W, the tested form may be a part): as the sequence (Q9VNB5 whole entry F83W, the tested form may be a part) above, with W83F, M210W counted along it
DmelOrco Y397S, sequence (Q9VNB5 whole entry Y397S, the tested form may be a part): as the sequence (Q9VNB5 whole entry F83W, the tested form may be a part) above, with W83F, Y397S counted along it
DmelOrco K373A, sequence (Q9VNB5 whole entry K373A, the tested form may be a part): as the sequence (Q9VNB5 whole entry F83W, the tested form may be a part) above, with W83F, K373A counted along it
DmelOrco V206S, sequence (Q9VNB5 whole entry V206S, the tested form may be a part): as the sequence (Q9VNB5 whole entry F83W, the tested form may be a part) above, with W83F, V206S counted along it
DmelOrco Y400A, sequence (Q9VNB5 whole entry Y400A, the tested form may be a part): as the sequence (Q9VNB5 whole entry F83W, the tested form may be a part) above, with W83F, Y400A counted along it
DmelOrco L141W, sequence (Q9VNB5 whole entry L141W, the tested form may be a part): as the sequence (Q9VNB5 whole entry F83W, the tested form may be a part) above, with W83F, L141W counted along it
DmelOrco F83A, sequence (Q9VNB5 whole entry F83A, the tested form may be a part): as the sequence (Q9VNB5 whole entry F83W, the tested form may be a part) above, with W83A counted along it
DmelOrco L141V, sequence (Q9VNB5 whole entry L141V, the tested form may be a part): as the sequence (Q9VNB5 whole entry F83W, the tested form may be a part) above, with W83F, L141V counted along it

As for `CCc1ccc(NC(=O)CSc2nnc(-c3cccnc3)n2CC)cc1` [VUAA1, N-(4-ethylphenyl)−2-((4-ethyl-5-(3-pyridinyl)−4H-1,2,4-triazol-3-yl)thio)acetamide], the “Response to VUAA1 compared with WT” value on DmelOrco Y400A is “did not significantly change the response”; on DmelOrco Y397S (500 µM VUAA1, TEVC, Y397S), “no significant effect; also recorded: did not significantly change the amplitude of activation”; at DmelOrco K373A (500 µM VUAA1, TEVC, K373A), “did not significantly affect the amplitude of activation; also recorded: did not change the response”; on DmelOrco F83W, “decreased the response; also recorded: significant decrease in the response”; on DmelOrco L141W, “did not induce significant change”; at DmelOrco L141V, “did not induce significant change”. Moreover, the “Response to VUAA1 compared with WT” value is on record as “did not significantly affect the amplitude of activation” at DmelOrco V206A (500 µM VUAA1, TEVC, V206A) and “significant decrease in the response” at DmelOrco M210W (500 µM VUAA1, TEVC, M210W). Also, the “VUAA1-induced current, Y397S” value on DmelOrco Y397S (Fig.4b, individual oocytes) is 0.98 and 1.78 and 4.23 and 0.82 and 0.77 and 1.48 and 8.3 and 6.29 and 5.87 and 5.52 and 1.76 and 2.18 and 1.83. Moreover, the “VUAA1-induced current, K373A” value on DmelOrco K373A (Fig.4b, individual oocytes) was 6.85 and 4.61 and 2.07 and 4.45 and 3.44 and 3.51 and 4.3 and 6.42 and 4.68 and 7.17 and 5.08. The “Current induced by VUAA1 (median)” value at DmelOrco F83A was found to be 2.33 µA; at DmelOrco M210W (500 µM VUAA1, TEVC, M210W), 2.12 µA. For the same compound, the “VUAA1-induced current, V206S” value at DmelOrco V206S is 3.68 and 9.72 and 7.51 and 6.18 and 8.36 and 5.44 and 4.17 and 5.76. Moreover, in the assay with AalbOrco, the “Current amplitude induced by 500 µM VUAA1 (single recordings)” value is 2.82 µA and 1.66 µA. Also, the “VUAA1-induced current, V206A” value on DmelOrco V206A (Fig.4b, individual oocytes) was 5.13 and 5.19 and 4.77 and 3.78 and 5.39 and 5.08 and 2.86 and 2.36. At DmelOrco M210W, this compound showed an EC50 of 120 µM. The compound also registered an Imax at DmelOrco M210W (concentration-effect curve of VUAA1, TEVC, M210W) of 1.50 µA.

Values taken from publication PMC10713630, “Elucidation of the structural basis for ligand binding and translocation in conserved insect odorant receptor co-receptors” (Nature Communications, 2023).
